Test results as given in patent publication US20040162247A1, “Therapeutic agent or osteoporosis comprising an active ingredient of quercetin derivatives” (priority 2000, published 2004).
Several values for one entry are separate records, joined by “and”; a condition that tells them apart may be missing. Identical values can stand only once. Like-named read-outs stand apart in the source and are kept apart here.

Assays:
[1] = Body weight of ovariectomized rats during drug administration
Procedure: (§1) Female SD (Sprague-Dawley) rats, a model animal for type I osteoporosis occurring after menopause were employed for evaluating pharmacological effectiveness of quercetin. Female rats (10 weeks old) weighing 200 to 300 g, obtained from the Korea Research Institute of Chemical Technology were employed as experimental animals. Experiment was carried out by the procedure which comprises removing ovary, administration of agents to the each group of rats, and at certain days after ovariectomy, the rats were sacrificed and subjected to analyses including measurement of body weight, examination of internal organs, measurement of trabecular bone area, complete blood count, and biochemical analyses of plasma.
(§2) The Sham group, animals operated upon for the surgery as in the ovariectomized rats except for removing ovary, were employed to compare the changes caused solely by ovariectomy in control group which were ovariectomized but no agent was administered. Control group was employed to compare the changes caused by administration of agents in test group which were ovariectomized and administered with testing agents.
(§3) During the period of administration, blood was sampled once a week. After 9-week administration, entire blood was withdrawn with heparin treatment. Following complete blood count (CBC), the blood was centrifuged at 3,000 rpm for 20 minutes to obtain plasma which was stored at −70° C. until use. For measurement of bone mineral density, the lumbar spine L5 and L6, and right tibia were removed and stored separately in 4% (v/v) formalin solution.

ovariectomized rats = test: Wet weight of internal organs of ovariectomized rats after drug administration; conditions: OVX rats
Procedure: To find out quercetin effect on internal organ of test animal, liver, kidney, brain, uterus, skin, and tibia were removed from the test animals administered with test agents for 9 weeks after operation and wet weight of each organ was measured (see: Table 4).

osteoclasts = test: Osteoclast proliferation, count of TRAP-positive multinucleated cells; type: cell-based, ICR mice; conditions: for Number of osteoclast (% of control group): day 2, TRAP staining
Procedure: ICR mice (Korea Research Institute of Chemical Technology, Taejon, Korea) were fed with calcium deficient diet (ICN Biomedicals, Inc., Ohio, U.S.A.) for 4 weeks to activate osteoclasts. The right and left tibiae and femurs of the calcium […] were removed avoiding contamination of surrounding muscle tissues. Femurs and right and left tibiae, classified on the clean bench and kept on ice separately, were added into the α-MEM containing 100 μg/ml streptomycin and then vigorously shaken respectively to extract osteoclasts into the medium. After kept on ice for 5 minutes, the cell suspension was centrifuged at 800×g for 3 minutes and the cell pellet was resuspended in a α-MEM nutrient medium supplemented with 10% FBS, 100 μg/ml streptomycin and 100 unit/ml penicillin. The cell suspension was distributed into wells of a 24-well plate at a cell number of 3.5×10^6/well. To the osteoclasts obtained in Example 2-1 above, quercetin was added to yield concentrations of 1×10^−8 to 1×10^−2 mg/ml. On day 2, the cells were subjected to tartrate-resistant acid phosphatase (TRAP) staining using a commercially available kit (Sigma Chemical Co., U.S.A.), followed by counting of osteoclasts which are TRAP-positive multinucleated cells (MNC), judged by more than three nuclei in a cell stained red (see: Table 2).

mice = conditions: orally administered, M. Sullivan et al. 1951; cited from earlier work
[2] = rat, in vivo
Procedure: as §1, §2, §3

[3] = 9 weeks i.p. (E2 1 μg/kg/day; quercetin, genistein 10 mg/kg/day)

O=c1c(-c2ccc(O)cc2)coc2cc(O)cc(O)c12 [Genistein, genistein]
Weight ([1]; OVX rats, 1 week after operation (start of administration)): 242.12 ± 5.96 g | Body weight increase after ovariectomy (in words) ([1]; OVX rats, compared with control group, E2 1 μg/kg/day, quercetin or genistein 10 mg/kg/day): rapid increase of body weight | Weight ([1]; OVX rats, i.p. from 1 week after operation (E2 1 μg/kg/day; quercetin, genistein 10 mg/kg/day), 2 weeks after operation): 270.00 ± 8.05 g | Weight ([1]; OVX rats, i.p. from 1 week after operation (E2 1 μg/kg/day; quercetin, genistein 10 mg/kg/day), 3 weeks after operation): 296.20 ± 7.68 g | Weight ([1]; OVX rats, i.p. from 1 week after operation (E2 1 μg/kg/day; quercetin, genistein 10 mg/kg/day), 4 weeks after operation): 310.80 ± 7.80 g | Weight ([1]; OVX rats, i.p. from 1 week after operation (E2 1 μg/kg/day; quercetin, genistein 10 mg/kg/day), 5 weeks after operation): 317.29 ± 7.93 g | Weight ([1]; OVX rats, i.p. from 1 week after operation (E2 1 μg/kg/day; quercetin, genistein 10 mg/kg/day), 6 weeks after operation): 327.19 ± 8.31 g | Weight ([1]; OVX rats, i.p. from 1 week after operation (E2 1 μg/kg/day; quercetin, genistein 10 mg/kg/day), 7 weeks after operation): 332.80 ± 9.23 g | Weight ([1]; OVX rats, i.p. from 1 week after operation (E2 1 μg/kg/day; quercetin, genistein 10 mg/kg/day), 8 weeks after operation): 336.38 ± 9.01 g | Weight ([1]; OVX rats, i.p. from 1 week after operation (E2 1 μg/kg/day; quercetin, genistein 10 mg/kg/day), 9 weeks after operation): 342.71 ± 8.26 g | Weight ([1]; OVX rats, i.p. from 1 week after operation (E2 1 μg/kg/day; quercetin, genistein 10 mg/kg/day), 10 weeks after operation): 347.23 ± 7.57 g | Weight ([1]; before operation (baseline, before administration)): 217.55 ± 7.24 g | Brain wet weight (ovariectomized rats; [3]): 1.98 ± 0.03 g | Kidney wet weight (ovariectomized rats; [3]): 1.83 ± 0.03 g | Liver wet weight (ovariectomized rats; [3]): 10.03 ± 0.36 g | Skin wet weight (ovariectomized rats; [3]): 188 ± 9 mg | Tibia wet weight (ovariectomized rats; [3]): 0.537 ± 0.008 g | Uterus wet weight (ovariectomized rats; [3]): 106 ± 3 mg | Effect on weight of uterus / uterine hypertrophy (in words) (ovariectomized rats; 9 weeks i.p., compared with control group): did not give rise to change in weight of uterus

O=c1c(O)c(-c2ccc(O)c(O)c2)oc2cc(O)cc(O)c12 [Quercetin, quercetin]
Inhibitory effect on the osteoclast proliferation (in words) (osteoclasts; 1×10^−8 to 1×10^−4 mg/ml): little inhibitory effect | Number of osteoclast (% of control group) (osteoclasts; 1 × 10^−2 mg/ml): 25 % of control group and 24.7 ± 5.7 % of control group | Number of osteoclast (% of control group) (osteoclasts; 1 × 10^−3 mg/ml): 61 % of control group and 61.1 ± 4.1 % of control group | Number of osteoclast (% of control group) (osteoclasts; 1 × 10^−4 mg/ml): 89.6 ± 3.2 % of control group | Number of osteoclast (% of control group) (osteoclasts; 1 × 10^−6 mg/ml): 96.8 ± 2.7 % of control group | Number of osteoclast (% of control group) (osteoclasts; 1 × 10^−8 mg/ml): 100.9 ± 1.8 % of control group | LD50 (mice): not less than 160 mg/kg | Weight [2]: 221.87 ± 7.57 g
